Molecular target: T1, integrin α4β7 (Homo sapiens, UniProt P13612+P26010)
T1 sequence (P13612 34-977 limits assumed): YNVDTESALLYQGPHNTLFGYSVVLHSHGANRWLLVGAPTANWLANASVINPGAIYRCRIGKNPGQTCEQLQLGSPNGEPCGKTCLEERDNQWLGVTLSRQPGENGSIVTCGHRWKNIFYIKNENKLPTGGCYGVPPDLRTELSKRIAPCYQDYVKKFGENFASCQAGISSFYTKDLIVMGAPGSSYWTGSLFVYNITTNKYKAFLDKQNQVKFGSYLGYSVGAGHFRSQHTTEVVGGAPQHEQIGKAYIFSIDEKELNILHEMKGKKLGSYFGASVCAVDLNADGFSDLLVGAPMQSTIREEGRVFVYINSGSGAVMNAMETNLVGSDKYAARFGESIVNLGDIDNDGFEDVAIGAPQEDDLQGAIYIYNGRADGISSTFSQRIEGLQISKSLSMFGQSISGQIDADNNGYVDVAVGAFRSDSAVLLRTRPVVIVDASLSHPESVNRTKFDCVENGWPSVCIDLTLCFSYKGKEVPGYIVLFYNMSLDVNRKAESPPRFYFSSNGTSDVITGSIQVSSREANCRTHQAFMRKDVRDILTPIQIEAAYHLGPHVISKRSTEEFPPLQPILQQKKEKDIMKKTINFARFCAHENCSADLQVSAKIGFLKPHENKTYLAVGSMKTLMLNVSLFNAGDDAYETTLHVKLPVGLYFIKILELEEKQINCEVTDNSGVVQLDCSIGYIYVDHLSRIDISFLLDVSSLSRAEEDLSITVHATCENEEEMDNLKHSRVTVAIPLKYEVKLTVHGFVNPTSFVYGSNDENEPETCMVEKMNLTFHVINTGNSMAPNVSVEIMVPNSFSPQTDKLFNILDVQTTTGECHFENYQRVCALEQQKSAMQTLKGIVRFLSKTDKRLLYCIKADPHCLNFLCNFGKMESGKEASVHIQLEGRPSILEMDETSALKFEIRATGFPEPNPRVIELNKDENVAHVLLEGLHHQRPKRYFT
T1 sequence (P26010 20-723 limits assumed): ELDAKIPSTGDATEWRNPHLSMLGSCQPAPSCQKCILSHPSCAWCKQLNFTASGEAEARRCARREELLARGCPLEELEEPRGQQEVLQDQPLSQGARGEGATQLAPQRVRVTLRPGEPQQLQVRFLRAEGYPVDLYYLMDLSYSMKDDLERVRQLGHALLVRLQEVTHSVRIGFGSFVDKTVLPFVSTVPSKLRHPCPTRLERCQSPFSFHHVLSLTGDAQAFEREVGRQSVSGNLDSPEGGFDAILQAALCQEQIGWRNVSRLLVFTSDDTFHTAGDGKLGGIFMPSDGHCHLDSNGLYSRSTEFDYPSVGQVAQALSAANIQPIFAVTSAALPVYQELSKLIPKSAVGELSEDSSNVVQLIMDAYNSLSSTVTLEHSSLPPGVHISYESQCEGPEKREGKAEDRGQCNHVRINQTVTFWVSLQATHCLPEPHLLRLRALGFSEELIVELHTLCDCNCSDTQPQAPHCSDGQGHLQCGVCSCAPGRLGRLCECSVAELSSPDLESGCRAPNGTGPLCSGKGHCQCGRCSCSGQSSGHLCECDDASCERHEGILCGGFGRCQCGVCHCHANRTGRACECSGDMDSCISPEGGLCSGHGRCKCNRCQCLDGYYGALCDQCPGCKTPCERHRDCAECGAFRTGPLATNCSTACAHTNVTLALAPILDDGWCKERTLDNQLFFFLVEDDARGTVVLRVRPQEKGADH
Experiment: Integrin α4β7—MAdCAM-1 competition assay (ELISA)
Format: binding
Conditions: ratio a4b1 ELISA IC50 / a4b7 ELISA IC50
Method: Integrin α4β7—MAdCAM-1 Competition Assay
The plate was incubated at 4° C. overnight. […] The plate was then incubated for 1 hour at room temperature. The plate was washed three times with wash buffer (50 mM Tris, 100 mM NaCl, 1 mM MnCl2, 0.05% Tween). To each well, 50 μl of compound diluted in assay buffer was added by transfer from a compound serial dilution plate. […] The plate was incubated at room temperature with shaking for 2 hours to reach binding equilibrium. Then the plate was washed three times in wash buffer and 100 μl anti-human IgG Fc specific-horseradish peroxidase (HRP) (Abcam, Ab97225) diluted at 1:2000 in assay buffer was added to each well. The plate was incubated at room temperature for 1 hour under agitation. The plates were then washed three times and 100 μl of 1,3′,5,5′-tetramethylbenxidie (TMB) was then added to each well.

| Compound | Selectivity ELISA |
| --- | --- |
| CC(C)C[C@@H]1NC(=O)CN(C)C(=O)[C@H](Cc2csc(-c3ccccn3)n2)NC(=O)[C@@H]2CCCN2[C@H](C(=O)NC(C)(C)C)[C@H](C)NC(=O)[C@H]([C@@H](C)O)NC(=O)[C@H](CC(=O)O)NC1=O [Compound 179] | 15.2 |
| COc1ccc(-c2ccccc2C[C@@H]2NC(=O)[C@@H]3CCCN3[C@H](C(=O)NC(C)(C)C)[C@H](C)NC(=O)[C@H]([C@@H](C)O)NC(=O)[C@H](CC(=O)O)NC(=O)[C@H](CC(C)C)NC(=O)[C@H]3CCCCN3C2=O)cc1 [Compound 137] | 7.8 |
| CC(C)C[C@@H]1NC(=O)[C@H]2C[C@H](O)CN2C(=O)[C@H](Cc2ccc(CN)cc2)NC(=O)[C@@H]2CCCN2[C@H](C(=O)NC(C)(C)C)[C@H](C)NC(=O)[C@H]([C@@H](C)O)NC(=O)[C@H](CC(=O)O)NC1=O [Compound 152] | 13.2 |
| CC(C)C[C@@H]1NC(=O)[C@H](Cc2cccc3ccccc23)NC(=O)[C@@H]2CCCN2[C@H](C(=O)NC(C)(C)C)[C@H](C)NC(=O)[C@H]([C@@H](C)O)NC(=O)[C@H](CC(=O)O)NC1=O [Compound 9] | 1.7 |
| CC[C@H](C)[C@@H]1NC(=O)[C@H](CC(=O)O)NC(=O)[C@H](CC(C)C)NC(=O)C[C@@H](CCCCN)NC(=O)[C@H](Cc2ccccc2)NC(=O)[C@@H]2CCCN2[C@H](C(=O)NC(C)(C)C)[C@H](C)NC1=O [Compound 220] | 18.2 |
| CC(C)C[C@@H]1NC(=O)C[C@H](CCCCN)NC(=O)[C@H](Cc2ccc(CN)cc2)NC(=O)[C@@H]2CCCN2[C@H](C(=O)NC(C)(C)C)[C@H](C)NC(=O)[C@H](C(C)C)NC(=O)[C@H](CC(=O)O)NC1=O [Compound 254] | 33.0 |
| CC(C)C[C@@H]1NC(=O)[C@@H]2CCN2C(=O)C[C@H](CCCCN)NC(=O)[C@@H]2CCCN2[C@H](C(=O)NC(C)(C)C)[C@H](C)NC(=O)[C@H]([C@@H](C)O)NC(=O)[C@H](CC(=O)O)NC1=O [Compound 319] | 4.8 |
| CC(C)C[C@@H]1NC(=O)CN(C)C(=O)[C@H](Cc2csc(-c3cccnc3)n2)NC(=O)[C@@H]2CCCN2[C@H](C(=O)NC(C)(C)C)[C@H](C)NC(=O)[C@H]([C@@H](C)O)NC(=O)[C@H](CC(=O)O)NC1=O [Compound 181] | 12.6 |
| CC[C@@H](C)[C@@H]1NC(=O)[C@H](CC(=O)O)NC(=O)[C@H](CC(C)C)NC(=O)C[C@H](CCCCN)NC(=O)[C@H](Cc2ccc(CN)cc2)NC(=O)[C@@H]2CCCN2[C@H](C(=O)NC(C)(C)C)[C@H](C)NC1=O [Compound 285] | 6.2 |
| CC(C)C[C@@H]1NC(=O)[C@H]2C[C@@H](O)CN2C(=O)[C@H](Cc2ccc(O)cc2)NC(=O)[C@@H]2CCCN2[C@H](C(=O)NC(C)(C)C)[C@H](C)NC(=O)[C@H]([C@@H](C)O)NC(=O)[C@H](CC(=O)O)NC1=O [Compound 141] | 2.0 |
| CC(C)C[C@@H]1NC(=O)[C@H](Cc2ccc(-c3ccccc3)cc2)NC(=O)[C@@H]2C[C@@H](F)CN2[C@H](C(=O)NC(C)(C)C)[C@H](C)NC(=O)[C@H]([C@@H](C)O)NC(=O)[C@H](CC(=O)O)NC1=O [Compound 46] | 2.4 |
| CC(C)C[C@@H]1NC(=O)[C@@H](CCCCN)NC(=O)[C@H](Cc2cccc3ccccc23)NC(=O)[C@@H]2CCCN2[C@H](C(=O)NC(C)(C)C)[C@H](C)NC(=O)[C@H]([C@@H](C)O)NC(=O)[C@H](CC(=O)O)NC1=O [Compound 120] | 19.1 |
| C[C@@H]1NC(=O)[C@H]([C@@H](C)O)NC(=O)[C@H](CC(=O)O)NC(=O)[C@H](CC(C)(C)C)NC(=O)c2ccc(-c3ccnc4ccccc34)c(c2)CNC(=O)[C@@H]2CCCN2[C@@H]1C(=O)NC(C)(C)C [Compound 355] | 1.4 |
| CC[C@H](C)[C@@H]1NC(=O)[C@H](CC(=O)O)NC(=O)[C@H](CC(C)C)NC(=O)C[C@H](CCCCN)NC(=O)[C@@H](Cc2ccc(CN)cc2)NC(=O)[C@@H]2CCCN2[C@H](C(=O)NC(C)(C)C)[C@H](C)NC1=O [Compound 253] | 15.6 |
